Target: Metabotropic glutamate receptor 4 (Homo sapiens, UniProt Q14833)
Test: Receptor Activity Assay
Method: The disclosed compounds and compositions can be evaluated for their ability to act as a potentiator of metabotropic glutamate receptor activity, in particular mGluR4 activity, by any suitable known methodology known in the art. For example, Chinese Hamster Ovary (CHO) cells transfected with human mGluR4 or HEK cells co-transfected with rat mGluR4 and the G-protein regulated Inwardly Rectifying Potassium channel (GIRK) were plated in clear bottom assay plates for assay in a Hamamatsu FDSS Fluorometric Plate Reader. The cells were loaded with either a Ca2+-sensitive fluorescent dye or the thallium responsive dye and the plates were washed and placed into a suitable kinetic plate reader. For human mGluR4 assays, a fluorescence baseline was established for 3-5 seconds, the disclosed compounds were then added to the cells, and the response in cells was measured.

Metabotropic glutamate receptor 4, sequence (Q14833 whole entry): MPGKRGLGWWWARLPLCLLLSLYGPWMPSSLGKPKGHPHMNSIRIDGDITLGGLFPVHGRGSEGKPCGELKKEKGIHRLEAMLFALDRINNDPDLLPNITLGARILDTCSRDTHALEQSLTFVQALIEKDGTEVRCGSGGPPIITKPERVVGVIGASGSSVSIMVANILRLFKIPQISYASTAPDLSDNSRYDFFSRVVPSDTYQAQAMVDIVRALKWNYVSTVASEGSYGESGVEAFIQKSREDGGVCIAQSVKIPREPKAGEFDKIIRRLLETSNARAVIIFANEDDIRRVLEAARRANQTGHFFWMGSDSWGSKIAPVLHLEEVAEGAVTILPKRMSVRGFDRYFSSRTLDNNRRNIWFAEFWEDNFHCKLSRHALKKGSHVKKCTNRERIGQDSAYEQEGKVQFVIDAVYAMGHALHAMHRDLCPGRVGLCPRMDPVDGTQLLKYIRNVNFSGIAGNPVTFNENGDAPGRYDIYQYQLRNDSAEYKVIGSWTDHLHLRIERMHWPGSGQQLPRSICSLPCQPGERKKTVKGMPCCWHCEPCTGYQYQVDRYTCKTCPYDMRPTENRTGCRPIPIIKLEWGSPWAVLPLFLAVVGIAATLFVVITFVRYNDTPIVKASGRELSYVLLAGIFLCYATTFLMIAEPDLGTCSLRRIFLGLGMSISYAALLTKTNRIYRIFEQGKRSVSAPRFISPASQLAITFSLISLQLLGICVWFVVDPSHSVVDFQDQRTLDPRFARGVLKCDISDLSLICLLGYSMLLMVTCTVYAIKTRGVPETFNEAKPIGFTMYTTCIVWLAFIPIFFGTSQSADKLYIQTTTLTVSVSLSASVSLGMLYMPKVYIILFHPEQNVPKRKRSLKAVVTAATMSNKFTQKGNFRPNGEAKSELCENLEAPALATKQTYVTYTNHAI

EC50: > 10 µM
SMILES: CC(C)c1nc(NC(=O)c2ccccn2)sc1S(=O)(=O)Cc1ccc(F)cc1F [US9192603, 65]
